Consider four compounds from publication PMC10044245, “Comparative Evaluation of Existing and Rationally Designed Novel Antimicrobial Peptides for Treatment of Skin and Soft Tissue Infections” (Antibiotics, 2023).

Data set [1] has as its system BALB/c 3T3 murine fibroblast cell line. Briefly: Cytotoxicity, neutral red uptake assay. Format: cell-based. The settings on record: 48 h; for concentrations at which cytotoxic / reduced cell viability: Balb/c 3T3, neutral red uptake, tested 3.9–500 μg/mL. From the text:
(§1) The BALB/c 3T3 murine fibroblast cell line was obtained from ATCC (American Type Culture Collection, Manassas, VA, USA). Primary human dermal fibroblasts were isolated by enzymatic digestion from skin biopsies in the Laboratory of Bioanalytical and Biodosimetry Methods, University of Latvia, in accordance with the approval of the Committee of Research Ethics of the Institute of Cardiology and Regenerative Medicine, University of Latvia. Cells were propagated in DMEM medium (Sigma, Irvine, UK), supplemented with 1% penicillin (100 U/mL)–streptomycin (100 μg/mL), and 10% calf serum (Sigma, St. Louis, MO, USA) for Balb/c 3T3 cell line and fetal bovine serum (Sigma, St. Louis, MO, USA) for primary dermal fibroblasts. All cultivations were performed in a humidified 5% CO2 atmosphere at 37 °C.
(§2) The cytotoxicity of the peptides was tested in the BALB/c3T3 cell line and primary dermal fibroblasts by the neutral red (NR) uptake assay. Cells were seeded in 96-well plates at a density of 5 × 10^3 cells per well. After 24 h of incubation, peptides in a concentration range of 3.9 to 500 μg/mL were added. Dilutions were made in a cell cultivation medium. Cultivation in the presence of extracts was performed for 48 h. Afterwards, plates were washed with phosphate-buffered saline (PBS) (Sigma, Irvine, UK), and a 25 µg/mL NR solution (Sigma, Irvine, UK) diluted in 5%-fetal-calf-serum-containing-media was added. After 3 h, incubation in a humidified 5% CO2 atmosphere at 37 °C, the plate was washed with PBS, and the NR taken up by viable cells was extracted using desorbing fixative (50% ethanol/1% acetic acid/49% water). Absorbance at 540 nm was measured using a microplate reader Tecan Infinite® 200 PRO (Tecan Group Ltd., Mannedorf, Switzerland). Cytotoxicity was expressed as a concentration-dependent reduction in the uptake of NR, compared to the untreated controls and calculated using the following equation: Cell viability (%)=Abs540nm(treatment)−Abs540nm(background)/Abs540nm(untreated control)−Abs540nm(background)×100%

Another data set concerns HaCaT keratinocytes. The settings on record: cited from earlier work.
The subject of the next data set is P. aeruginosa. Briefly: microbe, parasite or virus in culture. The format is cell-based, Pseudomonas aeruginosa. In outline:
(§3)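 Bacteria grown with serially diluted peptides at 32 °C, 200 rpm, for 13–18 h, with OD550 read every 10 min. MIC taken as the lowest peptide concentration preventing growth.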

The test system of the next data set is E. faecium. As to the kind of experiment: microbe, parasite or virus in culture. Format: cell-based, Enterococcus faecium. In a few lines:
as §3

The subject of data set [2] is primary human dermal fibroblasts. The format is cell-based. Particulars: 48 h.
Source text: as §1, §2

In data set [3] the test system is fresh human blood (red blood cell lysis). Briefly: Hemolysis assay. The format is cell-based. The method, then: A hemolysis test was performed to assess the hemocompatibility of the peptides. Blood from healthy donors was collected in Monovette vacutainers containing Ethylenediamine tetra-acetic acid (EDTA). Blood was diluted with 0.9% sodium chloride solution supplemented with 10 U/mL heparin (4:5 ratio by volume). Peptides were added to 1.5 mL vials containing fresh 0.49 mL PBS and incubated at 37 °C and 5% CO2 for 30 min, and 10 μL of diluted blood was added to each vial and incubated at 37 °C and 5% CO2 for 1 h. PBS was used as a negative control and deionized water was used as a positive control. After incubation tubes were centrifuged at 3000 rpm for 5 min, the supernatants were collected, and the absorbance was measured at a wavelength of 545 nm in a microplate reader Tecan Infinite® 200 PRO (Tecan Group Ltd., Mannedorf, Switzerland).
The hemolytic ratio (HR) was calculated by the following equation: HR (%)=(Abs(sample)−Abs(negative control))/(Abs (positive control−Abs(negative control))×100%

Another data set relates to S. aureus. Briefly: microbe, parasite or virus in culture. Format: cell-based, Staphylococcus aureus. In a few lines:
as §3

For data set [4], the system named is C. acnes. Briefly: microbe, parasite or virus in culture. Format: cell-based, Cutibacterium acnes. In a few lines:
as §3

The test system of another data set is K. pneumonia. Briefly: microbe, parasite or virus in culture. The format is cell-based, Klebsiella pneumoniae. In outline: as §3
In the next data set the test system is E. coli. Briefly: microbe, parasite or virus in culture. Format: cell-based, Escherichia coli. In a few lines:
as §3

The test system of data set [5] is C. acnes. Particulars: cited from earlier work. The method, then: Five AMPs were examined earlier for treatment of individual bacteria related to skin and soft tissue infections, while none of them were tested against all ESCAPE pathogens simultaneously. Peptide R1 is a direct derivate of earlier published RP551 [47], with the replacement of non-proteinogenic amino acid, ornithine (O) by lysine (K) at the positions 3,8,11, and 14.

For data set [6], the system named is TNF-α secretion in LPS stimulated PBMNCs. As to the kind of experiment: TNF-α secretion by PBMNCs, ELISA. The format is cell-based, human. The settings on record: 24 h. As for the experimental part:
(§4) The effect of the peptides was evaluated in human peripheral blood mononuclear cells (PBMNCs). Blood from healthy donors was collected in Monovette vacutainers containing EDTA. Blood was collected in accordance with the approval of the Committee of Research Ethics of the Institute of Cardiology and Regenerative Medicine, University of Latvia. Blood was diluted (1:2 ratio by volume) with 0.9% sodium chloride solution supplemented with 10 U/mL heparin and mononuclear cell fraction isolated by gradient centrifugation. Diluted blood samples were layered on Ficoll-Paque solution in ratio 2:1 (GE Healthcare, Chicago, IL, USA), and density gradient centrifugation was performed at 800× g for 20 min at room temperature in a swing-out centrifuge. Mononuclear cells containing buffy coats were aspirated and washed twice with phosphate-buffered saline and centrifuged at 600× g for 20 min at room temperature. The cell pellet was suspended in DMEM medium (Sigma, D6046, Irvine, UK) supplemented with 1% penicillin (100 U/mL)–streptomycin (100 μg/mL) and 10% fetal bovine serum (Sigma, St. Louis, MO, USA), and cells were seeded on 24-well plates at a density of 5 × 10^5 cells per well and incubated at 37 °C, 5% CO2. […]
(§5) Concentrations of TNF-α and IL-10 secreted in cultivation media by PBMNCs were determined using enzyme-linked immunosorbent assay (ELISA). […]

Data set [7] has as its system IL-10 secretion in LPS stimulated PBMNCs. As to the kind of experiment: IL-10 secretion by PBMNCs, ELISA. Format: cell-based, human. Particulars: LPS and 20 μg/mL peptide, 24 h. As for the experimental part: as §4, §5
Data set [8] has as its system human peripheral blood mononuclear cells (PBMNCs). As to the kind of experiment: Viability of PBMNCs, MTT reduction assay. The format is cell-based. Particulars: 24 h, 4 and 20 μg/mL with or without 5 µg/mL LPS, n = 3. As for the experimental part: as §4, with “temperature.” for “temperature. The cell pellet was suspended in DMEM medium (Sigma, D6046, Irvine, UK) supplemented with 1% penicillin (100 U/mL)–streptomycin (100 μg/mL) and 10% fetal bovine serum (Sigma, St. Louis, MO, USA), and cells were seeded on 24-well plates at a density of 5 × 10^5 cells per well and incubated at 37 °C, 5% CO2.”
Viability of PBMNCs after incubation with peptides was evaluated using MTT reduction assay. […] Absorption was measured at 570 nm using Tecan Infinite® 200 PRO (Tecan Group Ltd., Mannedorf, Switzerland).
Blank wells without cells were used for the background measurement. Proliferation relative to control was calculated using the equation below. […]

In brackets after ≈: the same amount, converted by molar mass. Like-named read-outs stand apart in the source and are kept apart here. Where a SMILES comes first, the peptide text is derived from it.

As to `CC(C)[C@H](N)C(=O)N[C@@H](CCCCN)C(=O)N[C@@H](CCCNC(=N)N)C(=O)N[C@@H](Cc1c[nH]c2ccccc12)C(=O)N[C@@H](CCCCN)C(=O)N[C@@H](CCCCN)C(=O)N[C@@H](Cc1c[nH]c2ccccc12)C(=O)N[C@@H](Cc1c[nH]c2ccccc12)C(=O)N[C@@H](CCCNC(=N)N)C(=O)N[C@@H](CCCCN)C(=O)N[C@@H](Cc1c[nH]c2ccccc12)C(=O)N[C@@H](CCCCN)C(=O)N[C@@H](CCCCN)C(=O)N[C@@H](Cc1c[nH]c2ccccc12)C(=O)N[C@H](C(=O)O)C(C)C` [LZ1, reference compound] (H-VKRWKKWWRKWKKWV-OH), the “concentrations at which cytotoxic / reduced cell viability” value in data set [1] is 62500 ng/mL. Further, the “concentrations without cytotoxic effect” value with HaCaT keratinocytes is recorded as “up to 200 μg/mL”.
For `CC(C)C[C@H](NC(=O)[C@H](C)NC(=O)[C@H](CCCCN)NC(=O)[C@H](CC(C)C)NC(=O)[C@H](C)NC(=O)[C@H](CCCCN)NC(=O)[C@H](CC(C)C)NC(=O)[C@H](CC(C)C)NC(=O)[C@H](C)NC(=O)[C@H](CCCCN)NC(=O)[C@H](CC(C)C)NC(=O)[C@H](C)NC(=O)[C@H](CCCCN)NC(=O)[C@H](C)NC(=O)[C@@H](N)Cc1ccccc1)C(=O)O` [Oligo10] (H-FAKALKALLKALKAL-OH), in the data set on P. aeruginosa, the “MIC P. aeruginosa” value came to 63.0 µg/mL (≈ 39.4 µM). The “MIC E. faecium” value against E. faecium was 16.0 µg/mL (≈ 10 µM). In data set [2], the “IC50, viability of human primary dermal fibroblasts” value was determined as 241.54 µg/mL. Further, in [1], the “IC50, viability of Balb/c 3T3 cells” value turned out to be 218.21 µg/mL. In addition, the “concentration with mild hemolytic activity” value in data set [3] was determined as 16000 ng/mL. Moreover, the “MIC S. aureus” value against S. aureus was 4.0 µg/mL (≈ 2.5 µM). In addition, the “MIC C. acnes” value in the data set with C. acnes [4] came out at 2.0 µg/mL (≈ 1.25 µM). For the same compound, in the data set on K. pneumonia, the “MIC K. pneumonia” value turned out to be 63.0 µg/mL (≈ 39.4 µM). The “MIC E. coli” value against E. coli is 16.0 µg/mL (≈ 10 µM).
For `CC[C@H](C)[C@H](NC(=O)[C@H](CCCCN)NC(=O)[C@@H](N)CCCCN)C(=O)N[C@@H](C)C(=O)N[C@@H](CCCCN)C(=O)N[C@@H](CCCCN)C(=O)N[C@@H](Cc1ccccc1)C(=O)N[C@@H](Cc1c[nH]c2ccccc12)C(=O)N[C@@H](CCCCN)C(=O)N[C@@H](CCCCN)C(=O)N[C@@H](Cc1ccccc1)C(=O)N[C@@H](Cc1c[nH]c2ccccc12)C(=O)N[C@@H](CCCCN)C(=O)N[C@@H](Cc1ccccc1)C(=O)N[C@@H](Cc1c[nH]c2ccccc12)C(=O)N[C@@H](CCCCN)C(=O)N[C@H](C(=O)N[C@@H](Cc1ccccc1)C(=O)N[C@@H](CCCCN)C(=O)N[C@@H](CCCCN)C(=O)O)[C@@H](C)CC` [Peptide R10] (H-KKIAKKFWKKFWKFWKIFKK-OH), in the data set with P. aeruginosa, the “MIC P. aeruginosa” value amounted to 2.0 µg/mL (≈ 0.729 µM) and the “Therapeutic Index P. aeruginosa” value is recorded as 19.1. In the data set with E. faecium, the “MIC E. faecium” value was 4.0 µg/mL (≈ 1.46 µM) and the “Therapeutic Index E. faecium” value was determined as 9.55. Moreover, the “IC50, viability of human primary dermal fibroblasts” value in data set [2] was 38.19 µg/mL. Besides, in data set [1], the “IC50, viability of Balb/c 3T3 cells” value amounted to 86.99 µg/mL. In addition, in [3], the “hemolytic activity” value is on record as “strong hemolytic activity”. For the same compound, in the data set on S. aureus, the “MIC S. aureus” value was 4.0 µg/mL (≈ 1.46 µM) and the “Therapeutic Index S. aureus” value is on record as 9.55. Besides, in the data set on C. acnes [4], the “MIC C. acnes” value is 0.5 µg/mL (≈ 0.182 µM) and the “Therapeutic Index C. acnes” value is 76.38. In addition, in the data set with K. pneumonia, the “MIC K. pneumonia” value was determined as 8.0 µg/mL (≈ 2.91 µM) and the “Therapeutic Index K. pneumonia” value is recorded as 4.77. Also, the “Therapeutic Index E. coli” value in the data set with E. coli stood at 19.1.
With `CC[C@H](C)[C@H](NC(=O)CNC(=O)[C@H](CCCCN)NC(=O)[C@H](Cc1ccc(O)cc1)NC(=O)[C@H](CS)NC(=O)[C@@H](NC(=O)[C@H](CCCCN)NC(=O)[C@H](Cc1ccccc1)NC(=O)[C@H](CS)NC(=O)[C@H](Cc1c[nH]c2ccccc12)NC(=O)[C@@H](N)CCCNC(=N)N)C(C)C)C(=O)N[C@@H](CS)C(=O)N[C@@H](Cc1ccc(O)cc1)C(=O)N[C@@H](CCCCN)C(=O)N[C@@H](CCCCN)C(=O)N[C@@H](CS)C(=O)N[C@@H](CCCCN)C(=O)O` [RP556] (H-RWCFKVCYKGICYKKCK-OH; N-terminus and C-terminus assumed), the “MIC P. aeruginosa” value in the data set with P. aeruginosa (96-well plate, serial dilutions, 32 °C, 13–18 h, 200 rpm, OD 550 nm) is 2 µg/mL (≈ 0.927 µM). The “concentrations at which cytotoxic / reduced cell viability” value in data set [1] is “only at the highest concentration”. Besides, in the data set on C. acnes [5], the “antimicrobial activity against C. acnes” value is 2 to 4 µg/mL. Besides, the “increase of TNF-α secretion” value in [6] is reported as “below 18.3%”. The “increase of IL-10 secretion compared to LPS alone” value in data set [7] is given as 35.56%. For the same compound, the “reduction of PBMNC viability” value in data set [8] is at most 17.5%.
